Results from article PMC7515950, “Physiologically based pharmacokinetic modeling to assess metabolic drug–drug interaction risks and inform the drug label for fedratinib” (Cancer Chemotherapy and Pharmacology, 2020).
Read-outs that look alike come from different tables or passages of the source.

Tests used:
[1] = Human 14C mass balance and metabolic profiling (BEX12257, MEH0082); assay type: in vivo; conditions: for fa (fraction of absorbed dose): estimated from mass balance and metabolic profiling, BEX12257 and MEH0082; for CL renal: estimated from BEX12257, MEH0082 with CL/F of 33.3 L/h, read-out: CLR (renal clearance) (converted)
Description: The first-order absorption ka value was estimated to be ~0.22 h^-1 based on compartmental modeling of mean PK data obtained from healthy subjects given single doses of 500 mg fedratinib (see Table 1 in Supplemental Material SM 2). The fa value was estimated based on data obtained from the mass balance and metabolic profiling studies conducted in healthy subjects. By combining the estimated excretion percentages of the parent compound in urine, feces, and bile, the unabsorbed dose was estimated to be ~35% and thus fraction of absorption (fa) was estimated to be ~0.65 (see Figure 2 and “Excretion Parameters” subsection).
Following the normalization, excretion percentages of fedratinib were estimated to be ~5% and ~37% of the administered dose in urine and feces, respectively.

[2] = Physicochemical properties (Study QUA-PG-2011-20593); conditions: for pKa: free form is a diprotic base
From the text: The physicochemical properties and blood binding parameters of fedratinib including molecular weight, logP, pKa, fu, and B/P were experimentally measured and listed in Table 1.

[3] = Biliary excretion in bile-duct cannulated rats (PDM-07-10348-059); assay type: in vivo; conditions: iv 5 mg/kg
From the text: The biliary excretion of unchanged drug accounts for 2.3% of the total intravenous dose in bile-duct cannulated (BDC) rats.

CYP2D6 = molecular target: T1, CYP2D6 (Homo sapiens, UniProt P10635); experiment: CYP inhibition in human liver microsomes (MIH0887), CYP2D6; assay type: in vitro ADME; conditions: HLM, apparent Ki, reversible inhibition
T1 construct: from tissue; host or cells: human liver microsomes
T1 sequence (P10635 whole entry): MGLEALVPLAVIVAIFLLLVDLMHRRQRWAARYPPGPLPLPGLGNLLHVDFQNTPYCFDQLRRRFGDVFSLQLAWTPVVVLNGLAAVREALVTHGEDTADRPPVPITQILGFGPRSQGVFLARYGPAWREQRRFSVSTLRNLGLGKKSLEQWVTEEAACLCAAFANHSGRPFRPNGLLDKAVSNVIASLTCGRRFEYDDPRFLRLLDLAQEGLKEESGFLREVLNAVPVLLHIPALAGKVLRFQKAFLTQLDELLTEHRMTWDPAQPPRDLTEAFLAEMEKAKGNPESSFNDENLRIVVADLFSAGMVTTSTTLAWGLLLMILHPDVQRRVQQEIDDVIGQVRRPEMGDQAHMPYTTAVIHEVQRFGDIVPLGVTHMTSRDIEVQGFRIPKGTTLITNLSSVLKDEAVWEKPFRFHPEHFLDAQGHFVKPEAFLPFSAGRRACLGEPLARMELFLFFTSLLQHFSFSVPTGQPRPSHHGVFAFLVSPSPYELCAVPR
Description: (§1) The CYP enzyme reverse inhibition and mechanism-based inhibition (MBI) parameters were estimated in the human liver microsome (HLM) incubation in vitro studies. The reported reversible inhibition parameter (i.e., apparent Ki) values for CYP2C8, CYP2C9, and CYP2D6, along with the MBI parameters (i.e., KI or Kapp and kinact) for CYP2C19 and CYP3A4, were supplied to the PBPK DDI model (see Table 2).

OCT2 = molecular target: T2, OCT2 (Homo sapiens, UniProt O15244); experiment: OCT2 inhibition, CHO-hOCT2 cells (TRI0013); assay type: in vitro ADME; set-up: expressed in transfected cells; host or cells: CHO^Fi-hOCT2
T2 sequence (O15244 1-555): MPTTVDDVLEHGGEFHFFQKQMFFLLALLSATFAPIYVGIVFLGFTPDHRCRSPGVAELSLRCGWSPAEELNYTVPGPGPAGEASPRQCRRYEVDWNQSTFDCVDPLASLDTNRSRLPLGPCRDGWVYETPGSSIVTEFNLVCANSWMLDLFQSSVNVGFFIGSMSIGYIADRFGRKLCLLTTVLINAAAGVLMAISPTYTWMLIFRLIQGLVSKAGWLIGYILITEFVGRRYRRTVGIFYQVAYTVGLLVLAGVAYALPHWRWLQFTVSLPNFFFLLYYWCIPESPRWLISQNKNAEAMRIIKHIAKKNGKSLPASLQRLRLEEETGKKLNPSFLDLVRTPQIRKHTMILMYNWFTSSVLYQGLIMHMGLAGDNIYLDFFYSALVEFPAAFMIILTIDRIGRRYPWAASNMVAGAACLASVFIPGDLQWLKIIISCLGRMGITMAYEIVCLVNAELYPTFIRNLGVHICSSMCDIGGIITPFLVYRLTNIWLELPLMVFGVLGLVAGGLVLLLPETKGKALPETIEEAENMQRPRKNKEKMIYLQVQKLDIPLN
From the text: (§2) The reported IC50 values were converted to Ki values using the Cheng-Prusoff equation [10]:
(§3) The transporter inhibition parameters (Ki) for fedratinib were derived from the experimentally determined IC50 values using the Cheng-Prusoff equation, i.e., Ki = IC50/(1+[S]/Km) with the substrate concentrations ([S]) reported in the experimental studies and the substrate Km values collected from literature, as summarized in Table 13.

P-gp = P-gp (Homo sapiens, UniProt P08183); experiment: P-gp interaction in Caco-2/TC7 (Study AIV0208); assay type: in vitro ADME; set-up: endogenous in cells; host or cells: Caco-2/TC7
Sequence of P-gp (P08183 whole entry): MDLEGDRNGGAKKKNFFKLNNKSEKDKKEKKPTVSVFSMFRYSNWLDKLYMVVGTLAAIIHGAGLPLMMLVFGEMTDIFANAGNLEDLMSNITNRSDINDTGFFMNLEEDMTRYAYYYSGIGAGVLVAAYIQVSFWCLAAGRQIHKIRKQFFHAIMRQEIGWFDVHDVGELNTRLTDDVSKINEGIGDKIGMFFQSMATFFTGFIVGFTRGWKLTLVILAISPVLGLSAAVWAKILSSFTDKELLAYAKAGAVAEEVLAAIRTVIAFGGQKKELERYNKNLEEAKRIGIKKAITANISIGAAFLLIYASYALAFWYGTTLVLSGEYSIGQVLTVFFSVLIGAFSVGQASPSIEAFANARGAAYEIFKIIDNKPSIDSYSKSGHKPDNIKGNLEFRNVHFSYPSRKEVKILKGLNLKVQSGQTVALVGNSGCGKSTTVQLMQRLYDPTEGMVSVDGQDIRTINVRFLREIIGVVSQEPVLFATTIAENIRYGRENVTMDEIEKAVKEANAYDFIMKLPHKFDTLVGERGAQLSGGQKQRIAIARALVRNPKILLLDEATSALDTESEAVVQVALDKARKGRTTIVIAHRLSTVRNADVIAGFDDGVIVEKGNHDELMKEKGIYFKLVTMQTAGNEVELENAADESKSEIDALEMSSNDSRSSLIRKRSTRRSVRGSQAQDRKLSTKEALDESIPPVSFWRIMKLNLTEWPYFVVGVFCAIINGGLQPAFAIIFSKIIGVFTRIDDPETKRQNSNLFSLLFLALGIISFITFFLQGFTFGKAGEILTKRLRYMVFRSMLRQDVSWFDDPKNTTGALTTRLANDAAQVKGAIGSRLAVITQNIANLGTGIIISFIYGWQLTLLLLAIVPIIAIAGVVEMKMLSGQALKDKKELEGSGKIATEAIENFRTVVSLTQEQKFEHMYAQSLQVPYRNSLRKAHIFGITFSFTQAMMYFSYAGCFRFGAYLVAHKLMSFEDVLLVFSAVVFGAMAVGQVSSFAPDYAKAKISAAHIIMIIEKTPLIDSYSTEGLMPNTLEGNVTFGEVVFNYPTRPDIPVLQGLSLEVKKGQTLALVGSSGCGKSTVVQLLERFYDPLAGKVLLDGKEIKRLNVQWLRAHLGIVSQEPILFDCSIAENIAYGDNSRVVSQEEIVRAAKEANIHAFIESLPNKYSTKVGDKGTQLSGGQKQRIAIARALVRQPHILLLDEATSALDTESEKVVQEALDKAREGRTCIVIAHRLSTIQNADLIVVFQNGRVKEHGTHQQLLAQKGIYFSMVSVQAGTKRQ
From the text: as §2, §3

CYP3A4 = molecular target: T3, CYP3A4 (Homo sapiens, UniProt P08684); experiment: CYP reversible and mechanism-based inhibition in human liver microsomes (MIH0887), CYP3A4; assay type: in vitro ADME
T3 construct: from tissue; host or cells: human liver microsomes
T3 sequence (P08684 2-503 limits assumed): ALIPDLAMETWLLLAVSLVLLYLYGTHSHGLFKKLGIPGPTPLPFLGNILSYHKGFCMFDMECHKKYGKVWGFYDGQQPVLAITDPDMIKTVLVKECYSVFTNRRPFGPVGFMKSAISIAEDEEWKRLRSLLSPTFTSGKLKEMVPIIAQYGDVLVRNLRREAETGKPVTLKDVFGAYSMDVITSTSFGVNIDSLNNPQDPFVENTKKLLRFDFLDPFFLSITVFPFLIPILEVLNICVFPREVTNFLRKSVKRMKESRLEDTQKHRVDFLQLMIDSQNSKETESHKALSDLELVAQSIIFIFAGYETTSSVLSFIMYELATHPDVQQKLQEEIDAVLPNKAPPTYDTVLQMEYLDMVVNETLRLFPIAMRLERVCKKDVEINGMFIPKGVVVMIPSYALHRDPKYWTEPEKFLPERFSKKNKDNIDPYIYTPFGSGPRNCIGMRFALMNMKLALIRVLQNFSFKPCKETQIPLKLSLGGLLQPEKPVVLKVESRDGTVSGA
Description: as §1

[4] = human 14C-mass balance, over 0-192/240h
[5] = normalized by total recovered radioactivity

**Q.** Which results are given for `Cc1cnc(Nc2ccc(OCCN3CCCC3)cc2)nc1Nc1cccc(S(=O)(=O)NC(C)(C)C)c1` [Fedratinib]?
**A.** unabsorbed dose ([1]; estimated from excretion of parent in urine, feces and bile): ~ 35%; fa (fraction of absorbed dose) [1]: 0.65; fa (fraction of absorbed dose) ([1]; listed as fedratinib): 0.650; parent compound in feces, percent of administered dose [1, 4]: 23.3%; parent compound in urine, percent of administered dose [1, 4]: 2.9%; blood plasma ratio ([1]; human, blood and plasma, oral, Study BEX12257, read-out: B/P (blood/plasma concentration ratio)): 0.7; CL renal ([1]; human, in vivo, oral): ~27.8 mL/min; CL renal ([1]; human, urine, oral): 27.8 mL/min; excretion percentage of fedratinib in feces, normalized [1, 5]: ~ 37%; excretion percentage of fedratinib in urine, normalized [1, 5]: ~ 5%; total percent activity of administered dose ([1]; over 0-192/240h): 62.7%; LogPo:w ([2]; Study QUA-PG-2011-20593): 3.500; logP ([2]; octanol/water, Study QUA-PG-2011-20593): 3.5; pKa ([2]; pKa1 (base)): 6.4; pKa ([2]; pKa2 (base)): 9.6; biliary excretion of unchanged drug, percent of total intravenous dose [3]: 2.3%; Ki (CYP2D6): 10.1 µM; Ki (OCT2; from IC50 by Cheng-Prusoff, probe metformin): 0.71 µM; IC50 (OCT2; probe metformin 25 μM): 0.78 µM; P-gp substrate in vitro (P-gp): substrate; Ki (P-gp; from IC50 by Cheng-Prusoff, probe digoxin): 10 µM; IC50 (P-gp; probe digoxin 5 μM): 10.1 µM; Ki (CYP3A4; HLM, assuming Ki = IC50/2): 9.55 µM; CYP3A4 KI or Kapp (CYP3A4; HLM, mechanism-based inhibition): 1.57 µM; CYP3A4 KI or Kapp (CYP3A4; HLM, mechanism-based inhibition, listed as fedratinib): 1.570 µM; kinact (CYP3A4; human, human liver microsomes, HLM, mechanism-based inhibition): 0.000717 s⁻¹; IC50 (CYP3A4; midazolam as substrate, absence of NADPH during pre-incubation, read-out: CYP3A IC50): 19.1 µM
